Assay [1] concerns the target T1, human α1G T-type channels (Homo sapiens, UniProt O43497).
T1 construct: expressed in transfected cells
The assay is described as follows: T-type calcium channel block, patch clamp in HEK cell lines. The settings on record: mainly non-inactivated protocol; HEK cells expressing human α1G; read-out: IC50 @ −80 mV. Format: cell-based. For orientation: In patch-clamp work, channel activity is measured electrically.

Assay [2] concerns the target T2, rat brain N-type calcium channel subunits (α1B+α2δ+β1b cDNA subunits) (Rattus norvegicus, UniProt Q02294).
T2 construct: expressed in transfected cells; host or cells: HEK 293 (stably, alternatively transiently, transfected)
Put plainly: N-type calcium channel block, whole cell patch clamp in HEK 293 cells. Format: cell-based. The settings on record: holding potential −80 mV to +10 mV. Here is the method: A. Transformation of HEK Cells: • N-type calcium channel blocking activity was assayed in human embryonic kidney cells, HEK 293, stably transfected with the rat brain N-type calcium channel subunits (α1B+α2δ+β1b cDNA subunits). Alternatively, N-type calcium channels (α1B+α2δ+β1b cDNA subunits), L-type channels (α1C+α2δ+β1b cDNA subunits) and P/Q-type channels (α1A+α2δ+β1b cDNA subunits) were transiently expressed in HEK 293 cells. Briefly, cells were cultured in Dulbecco's modified eagle medium (DMEM) supplemented with 10% fetal bovine serum, 200 U/ml penicillin and 0.2 mg/ml streptomycin at 37° C. with 5% CO2. At 85% confluency cells were split with 0.25% trypsin/1 mM EDTA and plated at 10% confluency on glass coverslips. At 12 hours the medium was replaced and the cells transiently transfected using a standard calcium phosphate protocol and the appropriate calcium channel cDNA's. Fresh DMEM was supplied and the cells transferred to 28° C./5% CO2. Cells were incubated for 1 to 2 days prior to whole cell recording.
B. Measurement of Inhibition
Whole cell patch clamp experiments were performed using an Axopatch 200B amplifier (Axon Instruments, Burlingame, Calif.) linked to a personal computer equipped with pCLAMP software. The external and internal recording solutions contained, respectively, 5 mM BaCl2, 10 mM MgCl2, 10 mM HEPES, 40 mM TEACl, 10 mM glucose, 87.5 mM CsCl (pH 7.2) and 108 mM CsMS, 4 mM MgCl2, 9 mM EGTA, 9 mM HEPES (pH 7.2). Currents were typically elicited from a holding potential of −80 mV to +10 mV using Clampex software (Axon Instruments). Typically, currents were first elicited with low frequency stimulation (0.067 Hz) and allowed to stabilize prior to application of the compounds. The compounds were then applied during the low frequency pulse trains for two to three minutes to assess tonic block, and subsequently the pulse frequency was increased to 0.2 Hz to assess frequency dependent block. Data were analyzed using Clampfit (Axon Instruments) and SigmaPlot 4.0 (Jandel Scientific).

Assay [3] deals with tactile allodynia after L5/L6 spinal nerve ligation. Put plainly: Spinal nerve ligation model of neuropathic pain, tactile allodynia (von Frey). The class given is in vivo, rat. The settings on record: SNL rats; orally in propylene glycol solution, 300 mg/kg. An excerpt: Spinal nerve ligation (SNL) injury was induced using the procedure of Kim and Chung, (Kim, S. H., et al., Pain (1992) 50:355-363) in male Sprague-Dawley rats (Harlan; Indianapolis, Ind.) weighing 200 to 300 grams. Anesthesia was induced with 2% halothane in O2 at 2 L/min and maintained with 0.5% halothane in O2. After surgical preparation of the rats and exposure of the dorsal vertebral column from L4 to S2, the L5 and L6 spinal nerves were tightly ligated distal to the dorsal root ganglion using 4-0 silk suture. The incision was closed, and the animals were allowed to recover for 5 days. […] Sham control rats underwent the same operation and handling as the experimental animals, but without SNL. The assessment of tactile allodynia consisted of measuring the withdrawal threshold of the paw ipsilateral to the site of nerve injury in response to probing with a series of calibrated von Frey filaments. Each filament was applied perpendicularly to the plantar surface of the ligated paw of rats kept in suspended wire-mesh cages. Measurements were taken before and after administration of drug or vehicle. Withdrawal threshold was determined by sequentially increasing and decreasing the stimulus strength (“up and down” method), analyzed using a Dixon non-parametric test (Chaplan S. R., et al., J Pharmacol Exp Ther (1994) 269:1117-1123), and expressed as the mean withdrawal threshold.

Assay [4] concerns T-type over L-type channels. The settings on record: cited from earlier work.
Setting [5] is: low frequency stimulation 0.067 Hz (tonic block), read-out: IC50 @ 0.067 Hz.
The mark [6] stands for this setting: pulse frequency 0.2 Hz (frequency dependent block), read-out: IC50 @ 0.2 Hz.

pIC50: −log10 of the molar value. Like-named read-outs stand apart in the source and are kept apart here.

The values below come from patent US20090221603A1, “HETEROCYCLIC AMIDE DERIVATIVES AS CALCIUM CHANNEL BLOCKERS” (priority 2005, published 2009).

T2 sequence (Q02294 whole entry): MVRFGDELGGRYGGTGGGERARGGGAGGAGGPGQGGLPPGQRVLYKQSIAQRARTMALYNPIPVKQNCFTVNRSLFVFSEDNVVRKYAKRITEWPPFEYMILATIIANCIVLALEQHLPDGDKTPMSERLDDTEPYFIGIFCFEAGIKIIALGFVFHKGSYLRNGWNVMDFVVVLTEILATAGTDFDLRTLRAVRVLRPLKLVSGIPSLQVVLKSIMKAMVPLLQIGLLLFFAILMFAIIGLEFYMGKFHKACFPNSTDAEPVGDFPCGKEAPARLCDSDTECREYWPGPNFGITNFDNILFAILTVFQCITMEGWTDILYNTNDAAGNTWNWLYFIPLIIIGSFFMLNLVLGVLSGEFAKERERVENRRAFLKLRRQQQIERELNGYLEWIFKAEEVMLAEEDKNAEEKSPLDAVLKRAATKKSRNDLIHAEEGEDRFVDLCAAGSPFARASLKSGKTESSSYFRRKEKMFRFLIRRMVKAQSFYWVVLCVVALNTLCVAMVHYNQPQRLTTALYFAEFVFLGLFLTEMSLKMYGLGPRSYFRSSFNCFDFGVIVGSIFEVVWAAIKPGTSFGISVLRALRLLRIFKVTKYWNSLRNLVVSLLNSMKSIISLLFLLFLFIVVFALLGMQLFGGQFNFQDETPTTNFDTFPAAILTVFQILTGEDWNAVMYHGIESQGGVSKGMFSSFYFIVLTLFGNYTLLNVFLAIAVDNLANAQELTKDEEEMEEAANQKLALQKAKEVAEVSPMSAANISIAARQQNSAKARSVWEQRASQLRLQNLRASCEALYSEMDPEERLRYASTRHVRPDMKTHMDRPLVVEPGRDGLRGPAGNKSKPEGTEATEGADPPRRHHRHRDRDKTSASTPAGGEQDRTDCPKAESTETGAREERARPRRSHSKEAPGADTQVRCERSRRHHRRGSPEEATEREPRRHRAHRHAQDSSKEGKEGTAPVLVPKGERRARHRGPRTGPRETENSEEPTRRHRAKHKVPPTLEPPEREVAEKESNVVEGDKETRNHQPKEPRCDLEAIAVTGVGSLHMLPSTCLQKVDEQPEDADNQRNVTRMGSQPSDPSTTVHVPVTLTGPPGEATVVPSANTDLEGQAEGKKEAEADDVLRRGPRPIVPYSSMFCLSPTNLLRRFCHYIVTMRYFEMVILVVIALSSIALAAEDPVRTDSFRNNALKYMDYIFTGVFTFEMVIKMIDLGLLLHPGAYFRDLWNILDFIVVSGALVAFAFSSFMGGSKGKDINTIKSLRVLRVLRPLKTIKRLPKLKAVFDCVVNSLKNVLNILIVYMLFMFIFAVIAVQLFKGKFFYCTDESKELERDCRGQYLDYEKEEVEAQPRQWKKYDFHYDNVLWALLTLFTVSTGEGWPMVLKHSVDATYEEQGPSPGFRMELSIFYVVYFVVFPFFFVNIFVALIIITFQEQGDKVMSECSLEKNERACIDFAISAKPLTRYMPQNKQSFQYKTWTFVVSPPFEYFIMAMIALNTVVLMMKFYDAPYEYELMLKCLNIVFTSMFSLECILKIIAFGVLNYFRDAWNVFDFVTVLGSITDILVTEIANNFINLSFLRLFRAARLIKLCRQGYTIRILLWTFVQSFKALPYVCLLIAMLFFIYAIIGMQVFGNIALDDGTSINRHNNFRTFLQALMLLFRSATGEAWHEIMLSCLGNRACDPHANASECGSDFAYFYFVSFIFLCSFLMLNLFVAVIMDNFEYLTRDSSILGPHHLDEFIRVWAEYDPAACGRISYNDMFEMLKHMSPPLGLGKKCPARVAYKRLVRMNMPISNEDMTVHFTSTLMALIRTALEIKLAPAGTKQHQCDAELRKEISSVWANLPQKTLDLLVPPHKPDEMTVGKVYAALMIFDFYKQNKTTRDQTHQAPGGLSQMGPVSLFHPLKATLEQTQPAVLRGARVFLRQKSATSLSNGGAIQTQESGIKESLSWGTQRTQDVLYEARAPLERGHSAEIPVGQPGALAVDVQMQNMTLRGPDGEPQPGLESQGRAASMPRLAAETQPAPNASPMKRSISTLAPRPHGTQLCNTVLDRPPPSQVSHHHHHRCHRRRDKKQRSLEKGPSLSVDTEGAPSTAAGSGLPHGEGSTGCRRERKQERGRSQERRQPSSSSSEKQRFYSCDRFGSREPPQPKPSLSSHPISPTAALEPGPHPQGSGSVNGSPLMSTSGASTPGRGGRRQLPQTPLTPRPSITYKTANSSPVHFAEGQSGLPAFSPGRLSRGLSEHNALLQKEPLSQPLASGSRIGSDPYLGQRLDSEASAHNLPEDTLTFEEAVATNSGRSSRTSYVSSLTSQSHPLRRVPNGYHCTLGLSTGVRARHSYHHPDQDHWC
T2 sequence (P54290 25-944 partner limits assumed): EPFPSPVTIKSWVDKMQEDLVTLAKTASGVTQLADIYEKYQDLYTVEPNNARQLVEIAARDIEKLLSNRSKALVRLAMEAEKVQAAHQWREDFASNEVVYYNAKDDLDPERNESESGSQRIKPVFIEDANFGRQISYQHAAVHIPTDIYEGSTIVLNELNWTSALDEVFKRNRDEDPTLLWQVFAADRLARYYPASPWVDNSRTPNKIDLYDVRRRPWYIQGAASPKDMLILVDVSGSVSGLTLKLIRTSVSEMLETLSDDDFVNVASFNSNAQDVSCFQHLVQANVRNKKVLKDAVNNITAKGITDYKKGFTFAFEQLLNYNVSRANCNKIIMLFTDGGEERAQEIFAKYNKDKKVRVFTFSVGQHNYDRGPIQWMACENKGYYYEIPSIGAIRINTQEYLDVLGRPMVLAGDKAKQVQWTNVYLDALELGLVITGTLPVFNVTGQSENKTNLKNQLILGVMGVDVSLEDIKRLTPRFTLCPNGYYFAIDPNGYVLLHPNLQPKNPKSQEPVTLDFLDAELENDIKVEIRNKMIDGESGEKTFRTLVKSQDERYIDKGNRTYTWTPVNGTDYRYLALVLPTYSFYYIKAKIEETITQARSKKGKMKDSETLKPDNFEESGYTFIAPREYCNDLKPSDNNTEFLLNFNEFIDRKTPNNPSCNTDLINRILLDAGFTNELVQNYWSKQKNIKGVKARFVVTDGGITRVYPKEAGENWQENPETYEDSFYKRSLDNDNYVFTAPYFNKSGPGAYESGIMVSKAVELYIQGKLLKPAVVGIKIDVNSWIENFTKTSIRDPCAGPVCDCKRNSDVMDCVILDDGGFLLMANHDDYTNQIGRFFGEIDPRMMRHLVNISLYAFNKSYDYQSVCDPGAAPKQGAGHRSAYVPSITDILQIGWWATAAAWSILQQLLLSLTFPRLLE
T2 sequence (P54290 945-1091 partner limits assumed): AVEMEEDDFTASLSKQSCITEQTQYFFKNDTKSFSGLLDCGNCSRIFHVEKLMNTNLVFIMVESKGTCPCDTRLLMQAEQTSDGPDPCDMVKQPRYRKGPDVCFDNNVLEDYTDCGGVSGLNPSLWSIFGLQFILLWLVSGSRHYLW
T2 sequence (P54283 whole entry partner): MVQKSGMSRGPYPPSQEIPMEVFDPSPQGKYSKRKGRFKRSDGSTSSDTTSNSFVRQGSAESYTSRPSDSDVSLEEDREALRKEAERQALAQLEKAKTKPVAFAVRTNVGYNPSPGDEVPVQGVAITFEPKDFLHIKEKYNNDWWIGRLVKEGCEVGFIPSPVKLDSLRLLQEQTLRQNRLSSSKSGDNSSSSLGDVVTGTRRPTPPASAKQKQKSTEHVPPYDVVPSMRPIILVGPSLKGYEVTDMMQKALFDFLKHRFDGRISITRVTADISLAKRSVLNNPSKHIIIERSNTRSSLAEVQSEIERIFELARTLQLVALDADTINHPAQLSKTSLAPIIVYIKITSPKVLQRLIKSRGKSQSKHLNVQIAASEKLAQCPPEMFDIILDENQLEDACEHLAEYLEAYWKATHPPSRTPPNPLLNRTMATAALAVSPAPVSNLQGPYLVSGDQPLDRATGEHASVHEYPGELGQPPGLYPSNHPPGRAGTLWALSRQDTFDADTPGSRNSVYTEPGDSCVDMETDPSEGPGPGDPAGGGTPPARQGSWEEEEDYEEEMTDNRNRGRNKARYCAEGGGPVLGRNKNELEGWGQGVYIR

As to `O=C(CNC(c1ccccc1)c1ccccc1)N1CCN(C(c2ccccc2)c2ccccc2)CC1` [Compound 1, 2-benzhydrylamino-1-(4-benzhydrylpiperazin-1-yl)ethanone], the pIC50 (as a rule, the negative decadic logarithm of the IC50, by convention in mol/L) was 7.10 in assay [1], 6.85 in assay [2] (setting [5]) and 7.10 in assay [2] (setting [6]).

For the molecule `CN(CC(=O)N1CCN(C(c2ccccc2)c2ccccc2)CC1)C(c1ccccc1)c1ccccc1` [Compound 2, 2-benzhydryl(methyl)amino-1-(4-benzhydrylpiperazin-1-yl)ethanone], the pIC50 was 5.54 in assay [1], 6.28 in assay [2] (setting [5]) and 6.51 in assay [2] (setting [6]).

`CN(CC(=O)N1CCN(C(c2ccccc2)c2ccc(F)cc2)CC1)C(c1ccccc1)c1ccccc1` (centres unmarked) [Compound 6, 2-benzhydryl(methyl)amino-1-(4-((4-fluorophenyl)(phenyl)methyl)piperazin-1-yl)ethanone]: the pIC50 is 5.70 in assay [1], 6.77 in assay [2] (setting [5]) and 6.92 in assay [2] (setting [6]).

Turning to `O=C(COc1ccc(Cl)cc1Cl)N1CCN(C(c2ccccc2)c2ccccc2)CC1` [Compound 26, 1-(4-benzhydrylpiperazin-1-yl)-2-(2,4-dichlorophenoxy)ethanone], the pIC50 is 5.90 in assay [1], 6.60 in assay [2] (setting [5]) and 6.72 in assay [2] (setting [6]).

With `O=C(CNC(c1ccccc1)c1ccccc1)N1CCN(C(c2ccc(F)cc2)c2ccc(F)cc2)CC1` [Compound 29, 2-(benzhydrylamino)-1-(4-(bis(4-fluorophenyl)methyl)piperazin-1-yl)ethanone], the pIC50 is 5.01 in assay [1], 6.57 in assay [2] (setting [5]) and 6.85 in assay [2] (setting [6]).

With `O=C(COC(c1ccccc1)c1ccccc1)N1CCN(C(c2ccccc2)c2ccccc2)CC1` [Compound 30, 2-(benzhydryloxy)-1-(4-benzhydrylpiperazin-1-yl)ethanone], the pIC50 in assay [1] was 6.23; in assay [2] (setting [5]), 6.31; in assay [2] (setting [6]) it was 6.57.

With `O=C(COC(c1ccccc1)c1ccccc1)N1CCN(C(c2ccc(F)cc2)c2ccc(F)cc2)CC1` [Compound 46, 2-(benzhydryloxy)-1-(4-(bis(4-fluorophenyl)methyl)piperazin-1-yl)ethanone], the pIC50 in assay [1] was 6.46; in assay [2] (setting [5]), 6.04; in assay [2] (setting [6]), 6.37.

With `O=C(C[S+]([O-])C(c1ccccc1)c1ccccc1)N1CCN(C(c2ccc(F)cc2)c2ccc(F)cc2)CC1` (centres unmarked) [Compound 48, 2-(benzhydrylsulfinyl)-1-(4-(bis(4-fluorophenyl)methyl)piperazin-1-yl)ethanone], the pIC50 in assay [1] is 6.51; in assay [2] (setting [5]), 6.66; in assay [2] (setting [6]) it was 6.80.

As to `O=C(CNC(c1ccccc1)c1ccccc1)N1CCN(C(c2ccccc2)c2ccccc2)C(CO)C1` (centres unmarked) [Compound 49, 2-benzhydrylamino-1-(4-benzhydryl-3-hydroxymethylpiperazin-1-yl)ethanone], the pIC50 in assay [1] is 6.43; in assay [2] (setting [5]) it was 6.31; in assay [2] (setting [6]), 6.54. Further, in assay [3], the reversal of allodynia result is “complete reversal of allodynia”.

`COCC1CN(C(=O)CNC(c2ccccc2)c2ccccc2)CCN1C(c1ccccc1)c1ccccc1` (centres unmarked) [Compound 53, 2-benzhydrylamino-1-(4-benzhydryl-3-methoxymethylpiperazin-1-yl)ethanone]: the pIC50 was 6.31 in assay [1], 6.60 in assay [2] (setting [5]) and 6.82 in assay [2] (setting [6]).

For the molecule `COCC(=O)O[C@]1(CCN(C)CCCc2nc3ccccc3[nH]2)CCc2cc(F)ccc2[C@@H]1C(C)C` [Mibefradil], the “selectivity for T-type over L-type channels” value in assay [4] was 10-30 fold.
